Assay results: paper PMC11387443, “Determination of bisphosphonate properties in terms of bioavailability, bone affinity, and cytotoxicity” (Pharmacological Reports, 2024)
“Also recorded” adds a separate entry of the source.

Key:
[1] = parameters: method as in PMID 18056045; conditions: cited from earlier work
[2] = tested on: Lactobacillus paracasei PCM 3039; test: Bacterial cell wall hydrophobicity (Congo Red binding); format: cell-based; conditions: 0.2 mg mL^−1 BP, 24 h; Ctrl 39.7 ± 8.0%
Procedure: (§1) Lactobacillus paracasei PCM 3039 used in the experiments was purchased from the Polish Collection of Microorganisms (Wroclaw, Poland). The liquid cultures were composed of the minimal medium (10% solution of MRS Broth in Dulbecco’s Phosphate Buffered Saline (DPBS)), the inoculum, and a BP stock solution in water (initial concentration of BPs in each culture was 0.2 mg mL^−1). The bacterial inoculum was prepared from the broth cultures incubated overnight at 37 °C and washed twice with a sterile medium. The initial cell concentration in each culture was adjusted to 1–10^8 cfu mL^−1. The reference cultures without the addition of BPs (denoted as Ctrl) and the abiotic control samples with the addition of pure minimal medium instead of bacterial inoculum were carried out. All samples were incubated at 36 °C for 24 h with shaking (150 rpm). The effect of BPs on the properties of bacterial cells was also evaluated. The experiments performed include (i) modifications of the bacterial cell membrane permeability—the measurements were based on the Crystal Violet uptake by the cells, (ii) modifications of the bacterial cell wall hydrophobicity, based on the procedure described previously. Relative metabolic activity of cells treated with the compounds in question measured with the colorimetric test AlamarBlue® Cell Viability Assay.

[3] = tested on: Lactobacillus paracasei PCM 3039; test: Bacterial cell membrane permeability (Crystal Violet uptake); format: cell-based; conditions: 0.2 mg mL^−1 BP, 24 h; for Crystal Violet uptake (cell membrane permeability): Ctrl 33.4 ± 8.0%
Procedure: as §1

[4] = tested on: Lactobacillus paracasei PCM 3039; test: Relative metabolic activity (AlamarBlue Cell Viability Assay); format: cell-based; conditions: 0.2 mg mL^−1 BP, relative to control group set at 100%
Procedure: as §1

[5] = Sorption of bisphosphonates on hydroxyapatite in SBF; format: physicochemical; conditions: 0.7 mM, 30 mg HA; for affinity for HA (sorption), comparison in words: 10 mL SBF, 1, 2 and 48 h
Procedure: The first step was to investigate the effect of concentration on the RSD sorption on HA. The sorption capacity was examined for 4 concentrations (0.2, 0.5, 0.7 and 1 mM). 30 mg (+ /− 0.1 mg) of HA was weighed into polypropylene tubes. Subsequently, 10 mL of Simulated Body Fluid (SBF) (Table 2) containing BPs was poured into the tubes and placed in a shaker for 1 h, 2 h, and 48 h. Sorption of BP compounds on HA was measured using a UV–VIS spectrophotometer after 5 min of centrifugation (speed 4000 rpm). The compound concentrations were measured by Multiskan152 Sky Microplate Spectrophotometer (Thermo Fisher Scientific, Waltham, MA, USA). Next, for one concentration (0.7 mM), sorption studies of all BPs were conducted in the same manner as indicated above for RSD. The measurements were conducted in the range of 220–400 nm. The quantitative assessment was performed based on the calibration curve method at the absorbance maximum for each BP (absorption properties of the tested compounds are summarized in Table 3).

[6] = Parallel artificial membrane permeability assay (PAMPA); format: in vitro ADME; conditions: 175 μM in PBS pH 7.4, 5 h; for PAMPA permeability, comparison in words: room temperature
Procedure: A parallel artificial membrane permeability assay (PAMPA) (Corning® Gentest™ Pre-coated PAMPA Plate System Gentest, USA) was prepared according to the recommended protocol. 96-well PAMPA plate was heated to room temperature for at least 30 min. Compound solutions were prepared in buffer (175 μM in PBS, pH 7.4). 300 μL of the BP solution was added to each donor plate well, and 200 μL of buffer (PBS, pH 7.4) was added to each acceptor plate. The filter plate (acceptor plate) was then placed on the receiver plate (donor plane) and the plate assembly was incubated at room temperature for 5 h. The compound amounts were measured by Multiskan152 SkyMicroplate Spectrophotometer (Thermo Fisher Scientific, Waltham, USA). The permeability of the BPs was calculated using the following formula (Eq. 1)1 Pe=-In[1-CA(t)/Cequilibrium]/A∗(1/VD+1/VA)∗t where Pe is the permeability (cm s^−1), Cequilibrium is [CD(t) × VD + CA(t) × VA]/(VD + VA), CD(t) indicates the compound concentration in donor well at time t (mM), CA(t) indicates the compound concentration in acceptor well at time t (mM), VD is the donor well volume (0.3 mL), VA is the acceptor well volume (0.2 mL), t is the incubation time (18000 s), and A is the effective filter area (0.3 cm^2).

[7] = tested on: Caco-2 cell monolayer; parameters: method as in PMID 26542347; conditions: cited from earlier work
[8] = parameters: method as in PMID 26542347; conditions: in vitro artificial intestinal membrane; cited from earlier work
[9] = parameters: method as in PMID 34277124; conditions: cited from earlier work
[10] = tested on: Lactobacillus paracasei PCM 3039; test: Growth curve of L. paracasei (OD600); format: cell-based; conditions: 0.2 mg mL^−1 BP, 24 h
Procedure: Lactobacillus paracasei PCM 3039 used in the experiments was purchased from the Polish Collection of Microorganisms (Wroclaw, Poland). The liquid cultures were composed of the minimal medium (10% solution of MRS Broth in Dulbecco’s Phosphate Buffered Saline (DPBS)), the inoculum, and a BP stock solution in water (initial concentration of BPs in each culture was 0.2 mg mL^−1). The bacterial inoculum was prepared from the broth cultures incubated overnight at 37 °C and washed twice with a sterile medium. The initial cell concentration in each culture was adjusted to 1–10^8 cfu mL^−1. The reference cultures without the addition of BPs (denoted as Ctrl) and the abiotic control samples with the addition of pure minimal medium instead of bacterial inoculum were carried out. All samples were incubated at 36 °C for 24 h with shaking (150 rpm). The growth of cells treated with BPs as well as control cells was monitored by measuring the optical density at the wavelength of 600 nm (OD600) as described by. The growth curve measurements were performed with a microplate reader Multiskan 152 Sky (Thermo Fisher Scientific, Waltham, MA, USA). 200 μL of the prepared bacterial cultures were transferred to the 96-well clear bottom sterile microplates wells. The plates were maintained at 37 °C with pulse shaking. The OD600 of each well was read every 10 min for 24 h.

[11] = parameters: method as in PMID 32387834; conditions: oral; cited from earlier work

Row | Congo Red Binding (cell wall hydrophobicity) [2] [%] | Crystal Violet uptake (cell membrane permeability) [3] [%] | affinity for HA (sorption), comparison in words [5] | change in membrane permeability in comparison with RSD [3] | Structure (SMILES) | AlamarBlue Reduction (relative metabolic activity) [4] | also measured
1 |  |  |  |  | O=P(O)(O)C(Cl)(Cl)P(=O)(O)O [clodronate] |  | urinary excretion 24 h after the first dose [1]: 73%
2 | 86.4 ± 1.7 | 60.6 ± 8.7 |  |  | O=P(O)(O)C(Nc1cccnc1Cl)P(=O)(O)O [BP10] |  | 
3 | 35.2 ± 6.1 | 30.9 ± 6.4 | highest sorption | significant decrease | O=P(O)(O)C(Nc1cccc(O)n1)P(=O)(O)O [BP11, (6-hydroksy-2-pyridinyl)amino-methylene-1,1-bisphosphonic acid] | 60.4 ± 3.4% | PAMPA permeability, comparison in words [6]: highest permeability among all analyzed BPs
4 | 89.3 ± 3.5 | 62.7 ± 8.4 |  |  | Cc1ccc(NC(P(=O)(O)O)P(=O)(O)O)nc1 [BP4, (5-methyl-2-pyridinyl)aminomethylene-1,1-bisphosphonic acid] | approximately 154.0% | drug concentration in the acceptor plate relative to RSD [6]: over twice as high as RSD; PAMPA permeability, comparison in words [6]: higher permeability than the other two compounds
5 |  |  | lower affinity | significant decrease | Cc1cc(C)nc(NC(P(=O)(O)O)P(=O)(O)O)c1 [BP5, (4,6-dimethyl-2-pyridinyl)amino-methylene-1,1-bisphosphonic acid] |  | 
6 | 85.0 ± 2.4 | 61.9 ± 5.7 |  |  | O=P(O)(O)C(Nc1cccc(Cl)n1)P(=O)(O)O [BP9, (6-chloro-2-pyridinyl)amino-methylene-1,1-bisphosphonic acid] | 35.9 ± 16.7% | 
7 |  |  |  |  | O=P(O)(O)C(O)(Cn1ccnc1)P(=O)(O)O [Zoledronate, zoledronic acid] |  | urinary excretion 24 h after the first dose [1]: 38%; apparent permeability coefficient Papp [7]: 2.72 ± 0.868 (× 10^−6) cm s^−1; permeability Pe [8]: Not detected
8 | 45.0 ± 5.8 | 30.6 ± 6.0 | slightly higher affinity for HA than RSD | significant decrease | O=P(O)(O)C(Nc1ccc(Br)cn1)P(=O)(O)O [BP7, (5-bromo-2-pyridinyl)amino-methylene-1,1-bisphosphonic acid] |  | drug concentration in the acceptor plate relative to RSD [6]: over twice as high as RSD
9 | 82.1 ± 1.7 |  | stronger affinity for HA than RSD |  | O=P(O)(O)C(Nc1ccc(Cl)cn1)P(=O)(O)O [BP8, (5-chloro-2-pyridinyl)amino-methylene-1,1-bisphosphonic acid] |  | drug concentration in the acceptor plate relative to RSD [6]: over twice as high as RSD; PAMPA permeability, comparison in words [6]: higher than twice as much as BP9 permeability; also recorded: highest permeability among all analyzed BPs
10 |  |  | lower affinity |  | Cc1cccnc1NC(P(=O)(O)O)P(=O)(O)O [BP2, (3-methyl-2-pyridinyl)aminomethylene-1,1-bisphosphonic acid] | approximately 154.0% | sorption and desorption on polymer-ceramic materials [9]: high sorption levels on polymer-ceramic materials, followed by extensive desorption; drug concentration in the acceptor plate relative to RSD [6]: over twice as high as RSD; PAMPA permeability, comparison in words [6]: higher permeability than the other two compounds
11 |  |  |  |  | O=P(O)(O)C(O)(Cc1cccnc1)P(=O)(O)O [RSD, Risedronate] |  | sorption on HA ([5]; 10 mL SBF): approximately 50%; urinary excretion 24 h after the first dose [1]: 65%; growth of L. paracasei (OD600 growth curve), in words [10]: initial fast cell growth was followed by a rapid decrease in cell density; bioavailability [11]: 0.62%
12 |  |  | slightly higher affinity for HA than RSD |  | O=P(O)(O)C(Nc1ccc(I)cn1)P(=O)(O)O [BP6, (5-iodo-2-pyridinyl)amino-methylene-1,1-bisphosphonic acid] |  | 
13 |  |  | slightly higher affinity for HA than RSD | significant decrease | O=P(O)(O)C(Nc1ccccn1)P(=O)(O)O [BP1, 2-pyridinylaminomethylene-1,1-bisphosphonic acid] | approximately 154.0% | sorption and desorption on polymer-ceramic materials [9]: high sorption levels on polymer-ceramic materials, followed by extensive desorption
14 |  |  |  | significant decrease | Cc1ccnc(NC(P(=O)(O)O)P(=O)(O)O)c1 [BP3, (4-methyl-2-pyridinyl)aminomethylene-1,1-bisphosphonic acid] |  | 

Row | Structure (SMILES) | Congo Red Binding (cell wall hydrophobicity) [2] [%] | Crystal Violet uptake (cell membrane permeability) [3] [%] | affinity for HA (sorption), comparison in words [5] | change in membrane permeability in comparison with RSD [3] | AlamarBlue Reduction (relative metabolic activity) [4] | also measured
15 | O=P(O)(O)C(Nc1nc2ccccc2s1)P(=O)(O)O [BP12, N-(1,3-benzothiazol-2-yl)amino-methylene-1,1-bisphosphonic acid] |  |  | lower affinity for HA compared to RSD and BP1 |  |  | sorption and desorption on polymer-ceramic materials [9]: high sorption levels on polymer-ceramic materials, followed by extensive desorption
